Six compounds from patent US6268395A, “Phorbol derivatives having antivirus activity” (Lead Chemical Co., Ltd., priority 1999, dated 2001) can be followed below.

Read-outs that look alike come from different tables or passages of the source.

The test system of one data set is protein kinase C (PKC). It counts as biochemical, mouse. As to conditions: for % Activity of PKC: relative to TPA positive control; for activation of PKC (in words): concentration not given. On the procedure:
After addition of 0.55 nM [γ-^32 P] ATP (50×10^3 cpm/nmol), the reaction mixture was mixed and allowed to be kept at 37° C. for 30 minutes. Then the reactions were terminated by the addition of 10 μl of ice-cold stop reagent. Aliquots of 35 μL were transferred to the center of peptide binding discs. After 10 minutes, the discs were washed two times with 75 mM orthophosphoric acid. The activity of ^32 P-labeled samples was counted in 10/mL of a scintillation fluid for 1 minute. […] Blank (in the absence of PKC) and control (in the absence of TPA or tested samples) were also carried out. One unit of PKC was defined as that amount of enzyme, which incorporated 1 nmol of phosphate from ATP into its substrate, peptide, per minute under the assay conditions, described above.

The next data set concerns HIV-1. The experiment in a line: Inhibition of HIV-1-induced cytopathic effect (CPE) in MT-4 cells. It is filed as cell-based, HIV-1 (LAV-1) in human MT-4 cells. Conditions: MT-4 cells; for IC100: Human immunodeficiency virus 1, MT4, 120 h, read-out: Anti-HIV-1 IC100 (complete prevention of HIV-1-induced CPE); for IC100 / Anti-HIV-1 IC100 (complete prevention of HIV-1-induced CPE): 5 days, NE: Not effective; for r = CC0/IC100: 7200 min; for CPE inhibitory effect (in words): HIV-1. As for the experimental part: (§1) In the experiments, MT-4 cells were used. The cells were incubated at 37° C. under 5% CO2 in RPMI-1640 medium (FCS, Flow laboratories, North Ryde, Australia) supplemented with 100 μg/mL of streptomycin (Meiji Seika, Tokyo, Japan), and 100 U/mL of penicillin G (Banyu Pharmaceutical, Tokyo, Japan).
HIV-1 was obtained from culture supernatant of MOLT-4 cells that had been persistently infected with LAV-1.
j) Assay of cytopathic effect(CPE) of HIV-1 in MT-4 cells
(§2) The inhibitory effect of test compounds on HIV-1-induced cytopathogenicity was measured by the method of Harada, Koyanagi & Yamamoto (1985). MT-4 cells were infected for 1 hour with HIV-1 (at TCID50 of 0.001/well) and non-adsorbed virus was removed by washing. Then, the cells were resuspended in RPMI-1640 medium at a concentration of 1.5×10^5 cells/mL. A 200 μL/well of the cell suspension was cultured for 5 days in days in a 96-well culture plate containing various concentrations (12 doses, maximum 1,000 μg/mL and minimum […]) of the test compounds. Control assays were performed in the absence of test compounds with HIV-1-infected and uninfected cultures. On day 5, the IC100 of the test compound required for completely preventing HIV-1-induced CPE(IC) was determined through an optical microscope and the cell growth was examined to give the CC0 that reduces the viability of MT-4 cells.
A variety of phorbol esters and related compounds were tested for their ability to inhibit the replication and infectivity of HIV-1 in MT-4 cells, a human CD4-positive cell line continually infected with HTLV-1, and the results are presented in Table 3.

The nature of data set [1]: Cell growth / viability of MT-4 cells (cytotoxicity). It counts as cell-based. As to conditions: human, day 5, read-out: CC0 (concentration that reduces viability of MT-4 cells; minimum cytotoxic concentration). As for the experimental part:
as §1, §2

The mark [2] stands for this setting: 10 ng/mL (standard concentration).

On to `CCCCC/C=C\C/C=C\CCCCCCCC(=O)OCC1=C[C@H]2[C@@H]3C(C)(C)[C@]3(OC(C)=O)[C@H](O)[C@@H](C)[C@]2(O)[C@@H]2C=C(C)C(=O)[C@@]2(O)C1` [Compound 1, 13-O-Acetylphorbol-20-(9Z,12Z-octadecadienoate)], for which the “PKC activation (in words)” value in the data set with protein kinase C (PKC) (setting [2]) is reported as “did not activate PKC”. Besides, in the data set on protein kinase C (PKC) (10 ng/mL), the “% Activity of PKC” value amounted to 0%. In the data set with HIV-1, the IC100 came out at 15.6 µg/mL and the “r = CC0/IC100” value is listed as 4.01. In data set [1], the MCC at 120 h was determined as 62.5 µg/mL.

`C/C=C(\C)C(=O)O[C@@]12[C@H](O)[C@@H](C)[C@@]3(O)[C@@H](C=C(COC(=O)CCCCCCC/C=C\C/C=C\CCCCC)C[C@]4(O)C(=O)C(C)=C[C@@H]34)[C@@H]1C2(C)C` [Compound 2, 13-O-Tigloylphorobol-20-(9Z,12Z-octadecadienoate)]: in the data set with protein kinase C (PKC) (10 ng/mL), the “% Activity of PKC” value came to 14%. Also, the “% Activity of PKC” value in the data set with protein kinase C (PKC) (2.7 μg/mL) is 32%. Further, in the data set on HIV-1, the IC100 is 7.81 µg/mL, the “Anti-HIV-1 IC100 (complete prevention of HIV-1-induced CPE)” value came to 7.8 µg/mL and the “r = CC0/IC100” value was determined as 8.00. The MCC at 120 h in data set [1] was 62.5 µg/mL.

Turning to `C/C=C(\C)C(=O)O[C@@]12[C@H](OC(C)=O)[C@@H](C)[C@@]3(O)[C@@H](C=C(CO)C[C@]4(O)C(=O)C(C)=C[C@@H]34)[C@@H]1C2(C)C` [Compound 3, 12-O-Acetylphorbol-13-tigliate], in the data set with protein kinase C (PKC) (10 ng/mL), the “% Activity of PKC” value is reported as 16%. The “% Activity of PKC” value in the data set on protein kinase C (PKC) (2.7 μg/mL) was 30%. The “activation of PKC (in words)” value in the data set with protein kinase C (PKC) is reported as “weak activation of PKC”. Also, in the data set on HIV-1, the IC100 turned out to be 125 µg/mL, the “CPE inhibitory effect (in words)” value was “weak inhibitory effects against CPE” and the “r = CC0/IC100” value is 4.00. Further, the MCC at 120 h in data set [1] was 500 µg/mL.

Take `CCCCCCCCCC(=O)O[C@@H]1[C@@H](C)[C@@]2(O)[C@@H](C=C(CO)C[C@]3(O)C(=O)C(C)=C[C@@H]23)[C@@H]2C(C)(C)[C@]12OC(=O)C(C)CC` (stereo partly shown) [Compound 4, 12-O-Decanoylphorbol-13-(2-methylbutyrate)]: in the data set with protein kinase C (PKC) (10 ng to 2.7 μg/mL), the “PKC activation (in words)” value was “no activation”. Moreover, the “% Activity of PKC” value with protein kinase C (PKC) (10 ng/mL) stood at 0%. For the same compound, in the data set on protein kinase C (PKC) (2.7 μg/mL), the “% Activity of PKC” value was 0%. The “activation of PKC (in words)” value in the data set on protein kinase C (PKC) is reported as “did not show any activation of PKC”. Besides, in the data set with HIV-1, the IC100 was found to be 7.81 µg/mL, the “Anti-HIV-1 IC100 (complete prevention of HIV-1-induced CPE)” value is 7.8 µg/mL and the “r = CC0/IC100” value was 4.01. Further, the MCC at 120 h in data set [1] came to 31.3 µg/mL.

On to `C/C=C(\C)C(=O)O[C@@H]1[C@@H](C)[C@@]2(O)[C@@H](C=C(CO)C[C@]3(O)C(=O)C(C)=C[C@@H]23)[C@@H]2C(C)(C)[C@]12OC(=O)C(C)CC` (stereo partly shown) [Compound 5, 12-O-Tigioylphorbol-13-(2-methylbutyrate)], for which, in the data set on protein kinase C (PKC) (10 ng/mL), the “% Activity of PKC” value came to 10%. Also, the “% Activity of PKC” value in the data set with protein kinase C (PKC) (2.7 μg/mL) worked out at 40%. Also, the “activation of PKC (in words)” value in the data set with protein kinase C (PKC) is “weak activation of PKC”. In the data set with HIV-1, the IC100 was 31.3 µg/mL, the “CPE inhibitory effect (in words)” value is given as “weak inhibitory effects against CPE” and the “r = CC0/IC100” value was 2.00. In addition, the MCC at 120 h in data set [1] turned out to be 62.5 µg/mL.

For `CC(=O)OCC1=C[C@H]2[C@@H]3C(C)(C)[C@]3(OC(C)=O)[C@H](OC(C)=O)[C@@H](C)[C@]2(O)[C@@H]2C=C(C)C(=O)[C@]2(OC(C)=O)C1` [Compound 23, 4α-Phorbol-4,12,13,20-tetraacetate], the “PKC activation (in words)” value in the data set with protein kinase C (PKC) (setting [2]) was “did not activate PKC”; with protein kinase C (PKC) (high concentrations) it was “enhanced activation of PKC”. Moreover, in the data set on protein kinase C (PKC) (10 ng/mL), the “% Activity of PKC” value was found to be 0%. In addition, the “CPE inhibitory effect (in words)” value with HIV-1 was “showed no effect”.
